Laboratory results: patent US20170333591A9, “ABSORBENT ARTICLE COMPRISING MALODOR REDUCTION COMPOSITIONS” (The Procter & Gamble Company, priority 2014, published 2017)

Assay: Log of liquid dish neat product liquid-air partition coefficient
Assay type: physicochemical
Conditions: not given

Row | Structure (SMILES) | Comment Code: Log of liquid dish neat product liquid-air partition coefficient
1 | CC(C)c1ccc(CC=O)cc1 [Material 977] | K (Log of liquid dish neat product liquid-air partition coefficient greater than or equal to 7)
2 | CC(=O)CCc1ccccc1 [Material 640] | K (Log of liquid dish neat product liquid-air partition coefficient greater than or equal to 7)
3 | C=C(OC(C)=O)c1ccccc1 [Material 931] | K (Log of liquid dish neat product liquid-air partition coefficient greater than or equal to 7)
4 | CC(C)(C)C(=O)OC1CC2CC1C1CC=CC21 (stereo not shown) [Material 978] | K (Log of liquid dish neat product liquid-air partition coefficient greater than or equal to 7)
5 | COc1ccc(COC=O)cc1 [Material 665] | K (Log of liquid dish neat product liquid-air partition coefficient greater than or equal to 7)
6 | C=C[C@](C)(O)CCC=C(C)C [Material 888] | K (Log of liquid dish neat product liquid-air partition coefficient greater than or equal to 7)
7 | CC=Cc1ccc(OCC)c(O)c1 [Material 1112] | K (Log of liquid dish neat product liquid-air partition coefficient greater than or equal to 7)
8 | C[C@@H]1CC[C@H]2[C@@H]1[C@H]1[C@@H](CC[C@]2(C)O)C1(C)C [Material 1140] | K (Log of liquid dish neat product liquid-air partition coefficient greater than or equal to 7)
9 | C[C@@H]1CC[C@H]2C(C)(C)[C@H]3C[C@@]12CC[C@@]3(C)O [Material 569] | K (Log of liquid dish neat product liquid-air partition coefficient greater than or equal to 7)
10 | C=CCCC(=O)C1=CCCC2(CCCC2)C1 [Material 1038] | K (Log of liquid dish neat product liquid-air partition coefficient greater than or equal to 7)
11 | CNC(=O)C(C)(C(C)C)C(C)C [Material 846] | K (Log of liquid dish neat product liquid-air partition coefficient greater than or equal to 7)
12 | CC(=O)OC1CC2C3C=CCC3C1C2(C)C (stereo not shown) [Material 360] | K (Log of liquid dish neat product liquid-air partition coefficient greater than or equal to 7)
13 | CCOc1cc(COC)ccc1O [Material 115] | K (Log of liquid dish neat product liquid-air partition coefficient greater than or equal to 7)
14 | C=CC(C)(CCC=C(C)C)OC(C)=O (stereo not shown) [Material 154] | K (Log of liquid dish neat product liquid-air partition coefficient greater than or equal to 7)
15 | CC1=CC[C@@H]2C3CC([C@@H]2C1)[C@@]1(C3)OC1C (stereo partly shown) [Material 1007] | K (Log of liquid dish neat product liquid-air partition coefficient greater than or equal to 7)
16 | CCCC(=O)OC1CC2CC1C1CC=CC21 (stereo not shown) [Material 484] | K (Log of liquid dish neat product liquid-air partition coefficient greater than or equal to 7)
17 | COC1CC2CC1C1CC(C=O)CC21 (stereo not shown) [Material 1027] | K (Log of liquid dish neat product liquid-air partition coefficient greater than or equal to 7)
18 | COc1ccc(C(C)=O)cc1 [Material 761] | K (Log of liquid dish neat product liquid-air partition coefficient greater than or equal to 7)

Same assay, conditions: Comment Code letters K and/or L

Row | Structure (SMILES) | Log of liquid dish neat product liquid-air partition coefficient (Comment Code K/L)
19 | C[C@@H]1CC[C@H]2[C@@H]1[C@H]1[C@@H](CC[C@]2(C)O)C1(C)C [Material 1140] | K (Log of liquid dish neat product liquid-air partition coefficient greater than or equal to 7)

Same assay, conditions: code letter within the Comment Code cell

Row | Structure (SMILES) | Log of liquid dish neat product liquid-air partition coefficient (Comment Code K/L)
20 | CCCCCC(=O)OCc1ccco1 [Material 338] | K (Log of liquid dish neat product liquid-air partition coefficient greater than or equal to 7)
21 | OCCCc1ccccc1 [Material 254] | K (Log of liquid dish neat product liquid-air partition coefficient greater than or equal to 7)
22 | CC(=O)c1ccc2ccccc2c1 [Material 120] | K (Log of liquid dish neat product liquid-air partition coefficient greater than or equal to 7)
23 | CC/C=C\C/C=C\CCO [Material 546] | K (Log of liquid dish neat product liquid-air partition coefficient greater than or equal to 7)
24 | CCCCCCCCCCCC(OC)OC [Material 421] | K (Log of liquid dish neat product liquid-air partition coefficient greater than or equal to 7)
25 | CCC(=O)OCC=Cc1ccccc1 [Material 548] | K (Log of liquid dish neat product liquid-air partition coefficient greater than or equal to 7)
26 | CC1=CCC(C=CC(C)C(C)O)C1(C)C (stereo not shown) [Material 416] | K (Log of liquid dish neat product liquid-air partition coefficient greater than or equal to 7)
27 | C=CC1(C)CCC(C(C)(C)O)CC1C(=C)C (stereo not shown) [Material 414] | K (Log of liquid dish neat product liquid-air partition coefficient greater than or equal to 7)
28 | CCCCCCCCCCOC(=O)CC [Material 471] | K (Log of liquid dish neat product liquid-air partition coefficient greater than or equal to 7)
29 | CC(=O)/C=C/C1C(C)CCC(C)C1(C)C (stereo not shown) [Material 71] | K (Log of liquid dish neat product liquid-air partition coefficient greater than or equal to 7)
30 | C=C1CCCC(C)(C)C1C(=O)C=CC (stereo not shown) [Material 331] | K (Log of liquid dish neat product liquid-air partition coefficient greater than or equal to 7)
31 | CC(=O)OC1CC2C3C=CCC3C1C2(C)C (stereo not shown) [Material 360] | K (Log of liquid dish neat product liquid-air partition coefficient greater than or equal to 7)
32 | C=CCCC(=O)C1CCCC(C)(C)C1 (stereo not shown) [Material 334] | K (Log of liquid dish neat product liquid-air partition coefficient greater than or equal to 7)
33 | CCCCCCC1C(=O)CCC1C(=O)OC (stereo not shown) [Material 450] | K (Log of liquid dish neat product liquid-air partition coefficient greater than or equal to 7)
34 | CC1(O)CCOC2(CCCCC2)C1 (stereo not shown) [Material 16] | K (Log of liquid dish neat product liquid-air partition coefficient greater than or equal to 7)
35 | CCCC(=O)OC1CC2CC1C1CC=CC21 (stereo not shown) [Material 484] | K (Log of liquid dish neat product liquid-air partition coefficient greater than or equal to 7)
36 | CC(C)=CCCC1=CCC(C=O)CC1 (stereo not shown) [Material 211] | K (Log of liquid dish neat product liquid-air partition coefficient greater than or equal to 7)

Same assay, conditions: code letters K/L of the Comment Code

Row | Structure (SMILES) | Log of liquid dish neat product liquid-air partition coefficient (Comment Code)
37 | C=C1C2CCC(C)(OCC)C1CCC2(C)C (stereo not shown) [Material 606] | K (Log of liquid dish neat product liquid-air partition coefficient greater than or equal to 7)
38 | CCCCCCCCCCCCCO [Material 1090] | K (Log of liquid dish neat product liquid-air partition coefficient greater than or equal to 7)
39 | CC(C)(C)C(=O)OC1CC2CC1C1CC=CC21 (stereo not shown) [Material 978] | K (Log of liquid dish neat product liquid-air partition coefficient greater than or equal to 7)
40 | C=CCCCCCCCCC=O [Material 871] | K (Log of liquid dish neat product liquid-air partition coefficient greater than or equal to 7)
41 | CC1=CCC(/C=C/C(C)(C)C(C)O)C1(C)C (stereo not shown) [Material 985] | K (Log of liquid dish neat product liquid-air partition coefficient greater than or equal to 7)
42 | CC(C)(C=O)CC1=CCC2CC1C2(C)C (stereo not shown) [Material 925] | K (Log of liquid dish neat product liquid-air partition coefficient greater than or equal to 7)
43 | CCCCCCCCCCC=O [Material 1102] | K (Log of liquid dish neat product liquid-air partition coefficient greater than or equal to 7)
44 | C=CCc1ccc2c(c1)OCO2 [Material 1021] | K (Log of liquid dish neat product liquid-air partition coefficient greater than or equal to 7)
45 | COC1CC2CC1C1CC(C=O)CC21 (stereo not shown) [Material 1026] | K (Log of liquid dish neat product liquid-air partition coefficient greater than or equal to 7)
46 | CCCCCCCCC=CC=O [Material 828] | K (Log of liquid dish neat product liquid-air partition coefficient greater than or equal to 7)
47 | C[C@@H]1CC[C@H]2C(C)(C)[C@H]3C[C@@]12CC[C@@]3(C)O [Material 569] | K (Log of liquid dish neat product liquid-air partition coefficient greater than or equal to 7)
48 | C=CCCC(=O)C1=CCCC2(CCCC2)C1 [Material 1038] | K (Log of liquid dish neat product liquid-air partition coefficient greater than or equal to 7)
49 | C=C1CCCC(C)(C)C2C=C(C)CCC12 (stereo not shown) [Material 707] | K (Log of liquid dish neat product liquid-air partition coefficient greater than or equal to 7)
50 | CCC=CCCC=CCO [Material 865] | K (Log of liquid dish neat product liquid-air partition coefficient greater than or equal to 7)
51 | CCC=C1OC(=O)c2ccccc21 [Material 805] | K (Log of liquid dish neat product liquid-air partition coefficient greater than or equal to 7)
52 | CCC(C)C(=O)OCCc1ccccc1 (stereo not shown) [Material 954] | K (Log of liquid dish neat product liquid-air partition coefficient greater than or equal to 7)
53 | CC1=CC[C@@H]2C3CC([C@@H]2C1)[C@@]1(C3)OC1C (stereo partly shown) [Material 1007] | K (Log of liquid dish neat product liquid-air partition coefficient greater than or equal to 7)
54 | COC1CC2CC1C1CC(C=O)CC21 (stereo not shown) [Material 1027] | K (Log of liquid dish neat product liquid-air partition coefficient greater than or equal to 7)
55 | C=C(C)C1CC=C(C)C(OC(C)=O)C1 (stereo not shown) [Material 577] | K (Log of liquid dish neat product liquid-air partition coefficient greater than or equal to 7)
